# Source: US10683297B2 (Sunshine Lake Pharma Co., Ltd., priority 2017, dated 2020)
# Legend:
# [1] = Compound stability in human liver microsomes; format: in vitro ADME; details: for half-life at 5 μM: human liver microsomes 0.5 mg protein/mL, compound 5 μM, NADPH 1.0 mM, pH 7.4, 37° C., read-out: Human T1/2; for CLint scaled at 5 μM: liver microsomes, pH 7.4, in vivo CLint extrapolated from human liver microsome incubation
# Method in brief: (§1)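 Compounds (5 μM) incubated at 37 °C with human or rat liver microsomes (0.5 mg protein/mL) and 1.0 mM NADPH in 100 mM phosphate buffer pH 7.4, 0.05% DMSO, in duplicate. Sampled 0–60 min, quantified by LC/MS/MS as % of time zero; CLint extrapolated.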
# JAK2 (h) = biological target: T1, JAK2 (h) (Homo sapiens, UniProt O60674); experiment: JAK2 (h) kinase assay; format: biochemical; details: [γ-33P-ATP] 10 μM or KM values; 40 minutes at room temperature
# T1 construct: purchased Millipore UK Ltd (assays performed there as a service)
# T1 sequence (O60674 whole entry): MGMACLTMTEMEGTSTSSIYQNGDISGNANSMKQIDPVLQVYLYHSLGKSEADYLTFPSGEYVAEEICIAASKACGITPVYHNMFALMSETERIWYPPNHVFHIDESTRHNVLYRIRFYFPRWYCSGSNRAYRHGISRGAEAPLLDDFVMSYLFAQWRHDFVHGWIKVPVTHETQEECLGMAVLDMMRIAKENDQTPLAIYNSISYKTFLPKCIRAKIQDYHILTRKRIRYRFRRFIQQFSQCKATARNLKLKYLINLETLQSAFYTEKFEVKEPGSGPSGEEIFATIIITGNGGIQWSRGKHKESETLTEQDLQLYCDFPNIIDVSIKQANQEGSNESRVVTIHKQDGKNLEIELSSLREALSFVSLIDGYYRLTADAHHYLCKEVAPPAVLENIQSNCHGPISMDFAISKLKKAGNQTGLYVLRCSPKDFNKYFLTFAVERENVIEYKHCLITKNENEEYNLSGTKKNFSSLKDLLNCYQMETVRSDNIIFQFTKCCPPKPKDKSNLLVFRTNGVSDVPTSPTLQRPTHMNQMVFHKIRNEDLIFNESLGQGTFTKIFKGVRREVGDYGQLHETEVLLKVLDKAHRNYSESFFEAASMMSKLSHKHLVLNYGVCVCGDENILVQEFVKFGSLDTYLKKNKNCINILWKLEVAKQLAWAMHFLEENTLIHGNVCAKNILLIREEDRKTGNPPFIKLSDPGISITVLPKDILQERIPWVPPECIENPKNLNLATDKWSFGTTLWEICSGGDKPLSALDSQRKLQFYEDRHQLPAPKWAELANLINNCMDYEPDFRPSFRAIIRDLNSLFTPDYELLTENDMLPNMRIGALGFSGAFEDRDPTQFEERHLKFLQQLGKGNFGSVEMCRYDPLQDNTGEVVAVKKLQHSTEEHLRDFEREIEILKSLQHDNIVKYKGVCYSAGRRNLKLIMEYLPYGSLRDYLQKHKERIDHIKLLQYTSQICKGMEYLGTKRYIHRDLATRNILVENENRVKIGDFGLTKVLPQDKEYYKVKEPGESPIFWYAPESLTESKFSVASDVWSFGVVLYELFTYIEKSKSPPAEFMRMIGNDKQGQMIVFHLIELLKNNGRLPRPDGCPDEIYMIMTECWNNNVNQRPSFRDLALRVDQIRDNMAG
# Procedure: Kinase assays can be performed by measurement of incorporation of γ-^33P ATP into immobilized myelin basic protein (MBP). High binding white 384 well plates (Greiner) are coated with MBP (Sigma # M-1891) by incubation of 60 μL well of 20 μg/mL MBP in Tris-buffered saline (TBS; 50 mM Tris pH 8.0, 138 mM NaCl, 2.7 mM KCl) for 24 h at 4° C. Plates are washed 3× with 100 μL TBS. Kinase reactions are carried out in a total volume of 34 μL in kinase buffer (according to the need to make, for example, 5 mM Hepes pH 7.6, 15 mM NaCl, 0.01% bovine gamma globulin (Sigma #1-5506), 10 mM MgCl2, 1 mM DTT, 0.02% TritonX-100). Compound dilutions are performed in DMSO and added to assay wells to a final DMSO concentration of 1%. Each data point is measured in duplicate, and at least two duplicate assays are performed for each individual compound determination. Enzyme is added to final concentrations of 10 nM or 20 nM, for example. A mixture of unlabeled ATP and γ-^33P ATP is added to start the reaction (2×10^6 cpm of γ-^33P ATP per well (3000 Ci/mmole) and 10 μM unlabeled ATP, typically. The reactions are carried out for 1 hour at room temperature with shaking. Plates are washed 7× with TBS, followed by the addition of 50 μL well scintillation fluid (Wallac). Plates are read using a Wallac Trilux counter. This is only one format of such assays; various other formats are possible, as known to one skilled in the art.
# The above assay procedure can be used to determine the IC50 for inhibition and/or the inhibition constant, Ki. […] The IC50 value is estimated by preparing a 10 point curve using a ½ log dilution series (for example, a typical curve may be prepared using the following compound concentrations: 3 μM, 1 μM, 0.3 μM, 0.1 μM, 0.03 μM, 0.01 μM, 0.003 μM, 0.001 μM, 0.0003 μM and 0 μM).
# JAK2 (h) is incubated with 8 mM MOPS pH 7.0, 0.2 mM EDTA, 100 μM […], 10 mM MgAcetate and [γ-^33P-ATP] […] The reaction is initiated by the addition of the MgATP mix. After incubation for 40 minutes at room temperature, the reaction is stopped by the addition of 3% phosphoric acid solution. 10 μL of the reaction is then spotted onto a P30 filtermat and washed three times for 5 minutes in 75 mM phosphoric acid and once in methanol prior to drying and scintillation counting.
# The kinase assays described herein were performed at Millipore UK Ltd, Dundee Technology Park, Dundee DD2 1SW, UK.
# [2] = Compound stability in rat liver microsomes; format: in vitro ADME; details: for CLint scaled at 5 μM: liver microsomes, pH 7.4, in vivo CLint extrapolated from rat liver microsome incubation; for half-life at 5 μM: read-out: Rat T1/2
# Method in brief: as §1
# [3] = rat liver microsomes 0.5 mg protein/mL, compound 5 μM, NADPH 1.0 mM, pH 7.4, 37° C.
SMILES,half-life at 5 μM [1] [min],CLint scaled at 5 μM [1] [mL/min/kg],IC50 (JAK2 (h)) [nM],CLint scaled at 5 μM [2] [mL/min/kg],"half-life at 5 μM [2, 3] [min]","Rat T1/2 [2, 3]"
"CCC1CN(c2ccc(C#N)cn2)CCC1Nc1nc(Nc2ccn3c(C)cnc3c2)ncc1Cl (centres unmarked) [Example 2, 6-(4-((5-chloro-2-((3-methylimidazo[1,2-a]pyridin-7-yl)amino)pyrimidin-4-yl)amino)-3-ethylpiperidin-1-yl)nicotinonitrile]",36.2,48.1,3,52.4,47.4,
"CCC1CN(c2ccc(C#N)nn2)CCC1Nc1nc(Nc2ccn3c(C)cnc3c2)ncc1Cl (centres unmarked) [Example 3, 6-(4-((5-chloro-2-((3-methylimidazo[1,2-a]pyridin-7-yl)amino)pyrimidin-4-yl)amino)-3-ethylpiperidin-1-yl)pyridazine-3-carbonitrile]",56.3,30.9,2,,,∞
"Cc1cnc2cc(Nc3ncc(Cl)c(NC4CCN(c5ccc(C#N)nn5)CC4)n3)ccn12 [Example 12, 6-(4-((5-chloro-2-((3-methylimidazo[1,2-a]pyridin-7-yl)amino)pyrimidin-4-yl)amino)piperidin-1-yl)pyridazine-3-carbonitrile]",117,14.9,16,13.4,186,
"N#Cc1ccc(N2CCC(Nc3nc(Nc4ccn5c(C(F)F)nnc5c4)ncc3Cl)CC2)nc1 [Example 30, 6-(4-((5-chloro-2-((3-(difluoromethyl)-[1,2,4]triazolo[4,3-a]pyridin-7-yl)amino)pyrimidin-4-yl)amino)piperidin-1-yl)nicotinonitrile]",126,13.8,10,30.8,80.5,
"Cc1nc2cc(Nc3ncc(Cl)c(NC4CCN(c5ccc(C#N)cn5)CC4)n3)ccn2n1 [Example 32, 6-(4-((5-chloro-2-((2-methyl-[1,2,4]triazolo[1,5-a]pyridin-7-yl)amino)pyrimidin-4-yl)amino)piperidin-1-yl)nicotinonitrile]",,,7,,,
"CC(C)(O)c1nc2cc(Nc3ncc(Cl)c(NC4CCN(c5ccc(C#N)cn5)CC4)n3)ccn2n1 [Example 39, 6-(4-((5-chloro-2-((2-(2-hydroxypropan-2-yl)-[1,2,4]triazolo[1,5-a]pyridin-7-yl)amino)pyrimidin-4-yl)amino)piperidin-1-yl)nicotinonitrile]",121,14.4,5,10.1,246,
CC(C)(O)c1nnc2cc(Nc3ncc(Cl)c(NC4CCN(c5ccc(C#N)cn5)CC4)n3)ccn12 [Example 40],361,4.8,1,44.7,55.6,
"Cn1cnc2cc(Nc3ncc(Cl)c(NC4CCN(c5ccc(C#N)cn5)CC4)n3)ccc21 [Example 46, 6-(4-((5-chloro-2-((1-methyl-1H-benzo[d]imidazol-5-yl)amino)pyrimidin-4-yl)amino)piperidin-1-yl)nicotinonitrile]",63.1,27.5,1,32.5,76.3,
"Cn1nnc2cc(Nc3ncc(Cl)c(NC4CCN(c5ccc(C#N)nn5)CC4)n3)ccc21 [Example 47, 6-(4-((5-chloro-2-((l-methyl-1H-benzo[d][1,2,3]triazol-5-yl)amino)pyrimidin-4-yl)amino)piperidin-1-yl)pyridazine-3-carbonitrile]",108,16.1,7,89.4,27.8,
"Cc1nc2cc(Nc3ncc(Cl)c(NC4CCN(c5ccc(C#N)cn5)CC4)n3)ccc2n1C [Example 48, 6-(4-((5-chloro-2-((1,2-dimethyl-1H-benzo[d]imidazol-5-yl)amino)pyrimidin-4-yl)amino)piperidin-1-yl)nicotinonitrile]",37,46.9,0.7,44.6,55.7,
"CC(C)(O)c1nc2cc(Nc3ncc(Cl)c(NC4CCN(c5ccc(C#N)nn5)CC4)n3)ccn2n1 [Example 55, 6-(4-((5-chloro-2-((2-(2-hydroxypropan-2-yl)-[1,2,4]triazolo[1,5-a]pyridin-7-yl)amino)pyrimidin-4-yl)amino)piperidin-1-yl)pyridazine-3-carbonitrile]",1370,1.3,14,7.3,340,
"CC(O)Cc1nc2cc(Nc3ncc(Cl)c(NC4CCN(c5ccc(C#N)nn5)CC4)n3)ccn2n1 (centres unmarked) [Example 56, 6-(4-((5-chloro-2-((2-(2-hydroxypropyl)-[1,2,4]triazolo[1,5-a]pyridin-7-yl)amino)pyrimidin-4-yl)amino)piperidin-1-yl)pyridazine-3-carbonitrile]",47.7,36.5,15,50.9,48.8,
"N#Cc1ccc(N2CCC(Nc3nc(Nc4ccc5c(c4)nnn5CC4CC4)ncc3Cl)CC2)nc1 [Example 60, 6-(4-((5-chloro-2-((1-(cyclopropylmethyl)-1H-benzo[d][1,2,3]triazol-5-yl)amino)pyrimidin-4-yl)amino)piperidin-1-yl)nicotinonitrile]",15.6,112,4,732,3.4,
"CC(O)Cn1cnc2cc(Nc3ncc(Cl)c(NC4CCN(c5ccc(C#N)cn5)CC4)n3)ccc21 (centres unmarked) [Example 61, 6-(4-((5-chloro-2-((1-(2-hydroxypropyl)-1H-benzo[d]imidazol-5-yl)amino)pyrimidin-4-yl)amino)piperidin-1-yl)nicotinonitrile]",128,13.6,1,86.2,28.8,
"CC(C)(O)Cc1nc2ccc(Nc3ncc(Cl)c(NC4CCN(c5ccc(C#N)cn5)CC4)n3)cn2n1 [Example 67, 6-(4-((5-chloro-2-((2-(2-hydroxy-2-methylpropyl)-[1,2,4]triazolo[1,5-a]pyridin-6-yl)amino)pyrimidin-4-yl)amino)piperidin-1-yl)nicotinonitrile]",127,13.7,39,80.6,30.8,
"CC(C)(O)c1cnc2cc(Nc3ncc(Cl)c(NC4CCN(c5ccc(C#N)cn5)CC4)n3)ccn12 [Example 68, 6-(4-((5-chloro-2-((3-(2-hydroxypropan-2-yl)imidazo[1,2-a]pyridin-7-yl)amino)pyrimidin-4-yl)amino)piperidin-1-yl)nicotinonitrile]",10.6,164,3,130,19,
"CC(C)(O)Cn1nnc2cc(Nc3ncc(Cl)c(NC4CCN(c5ccc(C#N)cn5)CC4)n3)ccc21 [Example 69, 6-(4-((5-chloro-2-((1-(2-hydroxy-2-methylpropyl)-1H-benzo[d][1,2,3]triazol-5-yl)amino)pyrimidin-4-yl)amino)piperidin-1-yl)nicotinonitrile]",496,3.5,2,14.6,170,
